From US20230226106A1 (priority 2017, published 2023)

Test system: Human umbilical cord endothelial cells
Assay type: cell-based
From the text: The toxicity of each component is checked on Human cell lines (Human umbilical cord endothelial cells).

Compound	human cell growth (treatment with as much as 250 μg/mL) [%]	toxicity (Human umbilical cord endothelial cells)	proliferation of cells (at as low as 1 μM concentration)
O=C(O)c1cc(O)c(O)c(O)c1 [Gallic acid]	100		
CCCCCCCCCCCCC/C=C/[C@@H](O)[C@@H](N)COP(=O)(O)O [Sphingosine-1-phosphate, Sphingosine-1-Phosphate]		not toxic	proliferative
